Values of other authors, collected in patent publication US10955416B2, “Compositions for detecting mutant anaplastic lymphoma kinase in human lung cancer” (CELL SIGNALING TECHNOLOGY, INC., priority 2006, dated 2021).

System: lymphoma cells
Details: Marzec et al., Lab. Invest. 85(12): 1544-54 (2005); cited from earlier work

Compound	apoptosis in lymphoma cells	proliferation in lymphoma cells
COc1cc2ncnc(Nc3ccc(O)c(Br)c3)c2cc1OC [WHI-154]	induce apoptosis	suppress proliferation
COc1cc2ncnc(Nc3ccc(O)cc3)c2cc1OC [WHI-131]	induce apoptosis	suppress proliferation
